Reference: patent publication US11793782B2, “Therapeutic agents for neurodegenerative diseases” (priority 2017, dated 2023)

Experiments:
[1] = test system: restless leg syndrome patients; test: Case studies, restless legs syndrome (IRLS score); format: in vivo, human; parameters: key to IRLS: IRLS 0 (no symptoms) to 40; >30 very severe, ≤10 mild
Source text: A widely reported rating scale known as the International Restless Leg Syndrome Study Group Rating Scale (“IRLS”) was developed by the International Restless Legs Syndrome Study Group (“IRLSSG”) (http://www.irlssg.org/) (Walters et al., Validation of the International Restless Legs Syndrome Study Group rating scale for restless legs syndrome. Sleep medicine. 2003 Apr. 1; 4(2):121-32). The IRLS is a 10-item scale with scores ranging from 0 (no symptoms) to 40. Scores >30 are considered very severe, severe (Score 21-30), moderate (scores 11-20) and ≤10, mild. Use of the scale is common for clinical assessment, research and therapeutic trials with RLS. In one embodiment, treatment with leucine, acetyl-leucine, or a pharmaceutically acceptable salt thereof as described herein decreases the subject's International Restless Leg Syndrome Study Group Rating Scale (“IRLS”) compared to a baseline. In one embodiment, the IRLS is reduced compared to baseline by at least 10%, at least 20%, at least 30%, at least 40%, or at least 50%. In one embodiment, the IRLS is reduced by at least 60%, at least 70%, at least 80%, at least 90%, or 100%.
The patient in this case study was a person showing proximal weakness of the so lower limb. […] Upon consultation, they reported no sensory symptoms but complained of a restless leg syndrome at night and during resting periods of the day, occurring over the course of the last two years. Pre-treatment with dopamine agonist were without symptom relief. Serum creatine kinase activity was only mildly elevated at up to 400 IU/L. The patient was evaluated using the RLS diagnostic index (RLS-DI) (see Walters et al., Sleep Med 2003; 4(2):121-132;). The patient's International Restless Legs Syndrome Rating Scale score (IRLS) was 36, and thus a severe RLS was diagnosed. […] Re-introduction of the treatment re-declined the score to 8 after 2 weeks. Continuation of treatment over more than 22 weeks stabilized the IRLS score at 8.
The patient in this case study was a person showing proximal weakness of the lower limb. […] Upon consultation, they reported no sensory symptoms but complained of a restless leg syndrome at night and during resting periods of the day, occurring over the course of the last eight years. […] Serum creatine kinase activity was mildly elevated at 300 IU/L. Iron measurements and all additional lab investigations were normal. The patient was evaluated using the RLS-DI and the patient's IRLS was 32, and thus a moderate to severe RLS was diagnosed. […] Continuation of treatment over more than 28 weeks stabilized the IRLS score at 8.
The patient in this case study was a person showing mild proximal weakness of the upper and lower limbs slowly progressive. The patient had been diagnosed (genetically confirmed) with McArdle myopathy about 16 years ago. Upon consultation, they reported no sensory symptoms but complained about a severe fatigue and reduced stamina. The patient further reported a restless leg syndrome at night and during resting periods of the day, occurring over the course of the last 12 years. […] Serum creatine kinase activity was mildly elevated at 200 IU/L; however, the patient had 5 episodes of rhabdomyolysis during the past 20 years. Repeated iron measurements and all additional lab investigations were normal. The patient was evaluated using the RLS-DI and the patient's IRLS was 34, and thus a severe RLS was diagnosed. […] Continuation of treatment over more than 30 weeks stabilized the IRLS score at 10. In addition, the patient's fatigue declined (Fatigue Severit Scale: 9 (minimum) to 63 (maximum)) from 53 to 28.

SCA 28 patient = test: Case study, spinocerebellar ataxia 28 (SCA 28); format: in vivo, human
Method: A gait analysis was performed before treatment commenced. After about one month of treatment, medication was stopped and the patient was evaluated. […] The patient reported that they no longer walked like a robot and could climb the stairs without using the banisters.

Npc1−/− mice = test: Coat condition of Npc1−/− mice; format: in vivo, mouse; settings: 0.1 g/kg in chow from weaning, nine weeks of age
Source text: Separate groups of Npc1^-/- and Npc1^+/+ mice were left untreated, as controls.

[2] = test system: Aspartylglucosaminuria patient fibroblasts; test: Lysosomal volume via LysoTracker, Aspartylglucosaminuria fibroblasts; format: cell-based, human; settings: 1 mM, 6 days
Npc1−/− and Npc1+/+ mice = test: Motor function analysis (Open Field Activity Monitor), NPC mouse study; format: in vivo; settings: 0.1 g/kg from weaning, nine weeks of age
Method: Separate groups of Npc1^−/− and Npc1^+/+ mice were left untreated, as controls. Motor function analysis was performed on mice at eight and nine weeks of age using an Open Field Activity Monitor according to manufacturer's instructions (Linton Instruments, Amlogger Software). Each mouse was placed in a plastic cage with bedding and analysed for five minutes. Rears were counted manually. Motor function parameters measured were: • 1. Centre Rearing: mice rearing on hind legs unsupported; • 2. Rearing: mice rearing on hind legs with and without the support of cage walls; • 3. Activity: regular movement of the animal including walks; • 4. Front to Back (FR) count: movement of the animal from front to back of the cage; • 5. Active Time: duration (s/min) of activeness regardless of movement; • 6. Mobile Time: duration (s/min) of mobility; • 7. Rearing Time: duration of any rearing. Results Coat Condition

[3] = test system: microtubule-associated protein 1A/1B-light chain 3-phosphatidylethanolamine conjugate (LC3-II); test: LC3-II levels in NPC1−/− mice; format: in vivo, mouse; settings: 0.1 g/kg body weight daily from 3 weeks of age, sacrificed at 8 weeks
Method: The Niemann-Pick Disease Type C (NPC) mouse model shares a number of pathological features with Alzheimer's disease (AD) as described herein. […] Mice were sacrificed at 8 weeks of age. Levels of amyloid precursor protein C-terminal fragments (APP-CTFs) were evaluated relative to total amyloid precursor protein (APP) levels in the cerebellum for wild type, untreated wild type NPC1^−/− mice, and AL-treated wild type NPC1^−/− mice. Levels of microtubule-associated protein 1A/1B-light chain 3-phosphatidylethanolamine conjugate (LC3-II) were also evaluated relative to levels of tubulin loading control for wild type, untreated wild type NPC1^−/− mice, and AL-treated wild type NPC1^−/− mice.

`CC(=O)NC(CC(C)C)C(=O)O` (racemic) [acetyl-DL-leucine] was tested, and the IRLS ([1]; RLS Patient 1 (myotonic dystrophy type 2), 5 g per day, within 14 days, before 36) was 26, the IRLS ([1]; RLS Patient 1, 2 weeks after re-introduction of the treatment) was 8 and the IRLS ([1]; RLS Patient 1, after another 5 weeks) was 9. For the same compound, the IRLS ([1]; RLS Patient 1, continuation of treatment over more than 22 weeks) was 8, the IRLS ([1]; RLS Patient 1, interruption of 4 weeks after week 12 of the treatment) was 28 and the IRLS ([1]; RLS Patient 2 (myotonic dystrophy type 2), 5 g per day, within 14 days, before 32) was 22. It also gave an IRLS ([1]; RLS Patient 2, after another 5 weeks) of 7, an IRLS ([1]; RLS Patient 2, continuation of treatment over more than 28 weeks) of 8 and an IRLS ([1]; RLS Patient 3 (McArdle myopathy), 5 g per day, within 21 days, before 34) of 20. The IRLS ([1]; RLS Patient 3, after another 10 weeks) was 10, the IRLS ([1]; RLS Patient 3, continuation of treatment over more than 30 weeks) was 10 and the “Fatigue Severit Scale” value ([1]; RLS Patient 3, scale 9 (minimum) to 63 (maximum), declined from 53) was 28. For the same compound, the Clinical observation (SCA 28 patient; 5 g per day, after about one month) was “improvement of the symptomatology”, the “Coefficient of variation (temporal)” value (SCA 28 patient; after treatment for one month, before 4.1) was 2.1 and the Track width (SCA 28 patient; after treatment for one month, before 14.5) was 11.7 cm. For the same compound, the “Functional Gait Assessment” value (SCA 28 patient; after treatment for one month, before 24/30) was 23/30, the Double stance (SCA 28 patient; after treatment for one month, before 24.9) was 23.8% and the cadence (SCA 28 patient; after treatment for one month, before 100) was 105 steps/minute. The Self-chosen speed (SCA 28 patient; after treatment for one month, before 101) was 118 cm/s, the Step cycle length (SCA 28 patient; after treatment for one month, before 122) was 135 cm and the Maximum speed (SCA 28 patient; after treatment for one month, before 188) was 201 cm/s. The Coat condition (Npc1−/− mice) was “smooth and glossy coat”, the “LysoTracker fluorescence relative to untreated disease fibroblasts” value [2] was “trend in reducing LysoTracker fluorescence” and the “Motor function vs untreated littermates” value (Npc1−/− and Npc1+/+ mice) was “significantly improved motor function”. For the same compound, the “LC3-II levels relative to tubulin loading control” value [3] was “lowering of LC3-II”.
